Here are results for four compounds from ChEMBL document CHEMBL1201862, “PubChem BioAssay data set” (2004).

Structures are written as SMILES. Calls of active or inactive are those of the source. A value given as a limit tells only on which side of the number the result lay.

For test [1], the target named is T1, Microphthalmia-associated transcription factor (Homo sapiens, UniProt O75030).
T1 sequence (O75030 whole entry): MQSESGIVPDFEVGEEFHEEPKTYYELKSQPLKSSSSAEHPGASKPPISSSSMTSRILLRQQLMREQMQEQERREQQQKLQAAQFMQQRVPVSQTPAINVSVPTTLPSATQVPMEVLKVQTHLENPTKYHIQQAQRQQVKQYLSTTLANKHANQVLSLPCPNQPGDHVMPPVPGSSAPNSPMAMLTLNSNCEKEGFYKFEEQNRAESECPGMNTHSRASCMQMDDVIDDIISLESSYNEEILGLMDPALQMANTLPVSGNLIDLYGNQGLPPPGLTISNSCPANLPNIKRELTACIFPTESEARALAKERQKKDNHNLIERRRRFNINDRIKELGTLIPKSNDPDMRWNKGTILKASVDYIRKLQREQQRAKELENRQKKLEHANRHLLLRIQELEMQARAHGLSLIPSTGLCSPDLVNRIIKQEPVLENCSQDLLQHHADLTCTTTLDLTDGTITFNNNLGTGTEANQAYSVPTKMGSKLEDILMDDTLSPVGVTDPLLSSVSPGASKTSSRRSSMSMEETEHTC
Put plainly: TRPM1 promoter luciferase signal decrease, dose response, MITF inhibitor project, cell-based, SK-MEL-5, cherry-picked, set 3 (AID 493073).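 Also: SK-MEL-5 melanoma cells with luciferase driven by the MITF target TRPM1 promoter.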 It counts as functional.

A further test has as its system INS1. Briefly: beta cell apoptosis inhibitors, cytokine rescue, dose response, luminescence, retest (AID 449756).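 Also: cell death triggered by IL-1 beta plus TNF-alpha plus IFN-gamma mixture; protective hits raise ATP signal compared with cytokine alone wells.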 Format: functional, cell-based. To be noted: Rattus norvegicus.
The nature of test [2]: SK-MEL-5 parental line viability, dose response, MITF inhibitor project, cell-based, CellTiter-Glo, dry powder, set 6 (AID 624429). It counts as functional. (In general: Cellular ATP, detected with luciferase, serves as a proxy for viable cell number.)
A short description of test [3]: MITF Orthogonal Assay: SK-MEL-5 CTG Assay Measured in Cell-Based System Using Plate Reader - 2084-02_Inhibitor_Dose_DryPowder_Activity_Set5. It counts as functional.
Test [4] deals with Bifunctional protein GlmU (Mycobacterium tuberculosis, UniProt P9WMN3). Briefly: Inhibitors of Mycobacterial Glucosamine-1-phosphate acetyl transferase (GlmU). Secondary screen. Also noted: species or system Mycobacterium tuberculosis H37Rv.
In test [5] the target is Intestinal-type alkaline phosphatase (Homo sapiens, UniProt P09923). Put plainly: activation of human intestinal alkaline phosphatase – biochemical, dose response (AID 488873). It counts as functional.
Test [6] concerns the target T2, RNA-binding protein pos-1 (Caenorhabditis elegans, UniProt G5EF15).
T2 sequence (G5EF15 whole entry): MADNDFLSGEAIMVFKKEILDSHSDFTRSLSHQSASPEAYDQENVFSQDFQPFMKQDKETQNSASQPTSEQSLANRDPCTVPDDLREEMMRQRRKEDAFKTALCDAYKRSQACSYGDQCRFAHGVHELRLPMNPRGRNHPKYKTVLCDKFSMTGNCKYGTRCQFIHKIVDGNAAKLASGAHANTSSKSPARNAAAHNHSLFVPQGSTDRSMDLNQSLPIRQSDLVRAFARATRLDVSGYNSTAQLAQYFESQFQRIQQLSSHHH
Put plainly: inhibitors of POS-1/mex-3 RNA binding, dose response, biochemical, fluorescence polarization (AID 1964).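 Also: purified POS-1 fused to maltose binding protein made in E. coli; potency of compounds blocking POS-1 binding to fluorescent RNA.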 A general note: In fluorescence polarisation assays a small probe gives low polarisation when free and higher when bound to something large.

Test [7] is described as follows: cytotoxicity in HPDE-C7 cells, cell-based, fluorescence, HTS (AID 430). Format: functional. To be noted: Homo sapiens.
Test [8] is described as follows: inhibitors of intracellular T. cruzi replication, confirmation, NIH3T3 host cells, beta-gal luminescence (AID 2044).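 Also: intracellular parasites grown in NIH/3T3 mouse fibroblasts as host cells; luminescent beta-galactosidase reporter signal from transgenic T. cruzi replicating inside host cells; inhibitors lower the luminescence signal.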 It counts as functional, cell-based.
In a further test the target is Protein Tat (Human immunodeficiency virus type 1 group M subtype B (isolate HXB2)(HIV-1), UniProt P04608). It counts as functional.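 Also: tat binding to TAR RNA read out by fluorescence polarization.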
In test [9] the target is Tyrosine-protein kinase JAK2 (Homo sapiens, UniProt O60674). Format: functional.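 Also: JAK2 tested as one member of a kinase panel.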
Test [10] deals with Protein kinase C delta type (Homo sapiens, UniProt Q05655). It counts as functional.
The target of test [11] is Tyrosine-protein kinase SYK (Homo sapiens, UniProt P43405). It counts as functional.
The target in test [12] is Serine/threonine-protein kinase D3 (Homo sapiens, UniProt O94806). It counts as functional.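 Also: determined within a kinase panel screen, with PRKCN as the panel member.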
For test [13], the target named is Serine/threonine-protein kinase Chk2 (Homo sapiens, UniProt O96017). Format: functional.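 Also: CHEK2 entry within a kinome-wide screening panel.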
The target in test [14] is Mast/stem cell growth factor receptor Kit (Homo sapiens, UniProt P10721). It counts as functional.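 Also: KIT entry within a kinase panel assay.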
For test [15], the target named is Casein kinase I isoform alpha (Homo sapiens, UniProt P48729). It counts as functional.
For test [16], the target named is Serine/threonine-protein kinase TAO1 (Homo sapiens, UniProt Q7L7X3). It counts as functional.
In test [17] the target is Serine/threonine-protein kinase pim-3 (Homo sapiens, UniProt Q86V86). It counts as functional.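 Also: value obtained as one member of a broad kinase panel profiling effort.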
For test [18], the target named is Tyrosine-protein kinase ABL1 (Homo sapiens, UniProt P00519). It counts as functional.
The target in test [19] is Cyclin-dependent kinase 5 (Homo sapiens, UniProt Q00535). Format: functional.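 Also: CDK5 measured as one member of a kinase profiling panel.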
Another test concerns the target Ephrin type-A receptor 2 (Homo sapiens, UniProt P29317). Format: functional.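 Also: EPHA2 tested as one member of a kinome-wide kinase panel.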
For test [20], the target named is Serine/threonine-protein kinase Nek4 (Homo sapiens, UniProt P51957). It counts as functional.
Test [21] has as its target Dual specificity tyrosine-phosphorylation-regulated kinase 1B (Homo sapiens, UniProt Q9Y463). Put plainly: Navigating the Kinome. Panel member name: DYRK1B. Format: functional.
Test [22] addresses cAMP-dependent protein kinase catalytic subunit PRKX (Homo sapiens, UniProt P51817). Format: functional.
Test [23] concerns the target Leucine-rich repeat serine/threonine-protein kinase 2 (Homo sapiens, UniProt Q5S007). Format: functional.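 Also: value from a broad kinome-wide panel profiling study in which LRRK2 was one of the kinases tested.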
Test [24] has as its target Rho-associated protein kinase 1 (Homo sapiens, UniProt Q13464). It counts as functional.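 Also: measured within a broad kinome-wide panel profiling many kinases.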
Test [25] addresses Calcium/calmodulin-dependent protein kinase type 1 (Homo sapiens, UniProt Q14012). It counts as functional.
The target in test [26] is Cyclin-dependent kinase 1 (Homo sapiens, UniProt P06493). It counts as functional.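 Also: Kinome-wide panel profiling, with the target listed as panel member CDC2.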
The target in test [27] is Serine/threonine-protein kinase Nek2 (Homo sapiens, UniProt P51955). It counts as functional.
In test [28] the target is Cyclin-dependent kinase 8 (Homo sapiens, UniProt P49336). Briefly: Navigating the Kinome. Panel member name: CDK8. It counts as functional.
Test [29] concerns the target Serine/threonine-protein kinase PLK1 (Homo sapiens, UniProt P53350). Format: functional.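 Also: PLK1 measured as one member of a kinome-wide profiling panel.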
In test [30] the target is BDNF/NT-3 growth factors receptor (Homo sapiens, UniProt Q16620). It counts as functional.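 Also: NTRK2 measured as one member of a broad kinome-wide kinase profiling panel.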
In test [31] the target is Receptor tyrosine-protein kinase erbB-4 (Homo sapiens, UniProt Q15303). Format: functional.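 Also: ERBB4 member of a kinome-wide kinase profiling panel.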

Sequence of Bifunctional protein GlmU (P9WMN3 whole entry): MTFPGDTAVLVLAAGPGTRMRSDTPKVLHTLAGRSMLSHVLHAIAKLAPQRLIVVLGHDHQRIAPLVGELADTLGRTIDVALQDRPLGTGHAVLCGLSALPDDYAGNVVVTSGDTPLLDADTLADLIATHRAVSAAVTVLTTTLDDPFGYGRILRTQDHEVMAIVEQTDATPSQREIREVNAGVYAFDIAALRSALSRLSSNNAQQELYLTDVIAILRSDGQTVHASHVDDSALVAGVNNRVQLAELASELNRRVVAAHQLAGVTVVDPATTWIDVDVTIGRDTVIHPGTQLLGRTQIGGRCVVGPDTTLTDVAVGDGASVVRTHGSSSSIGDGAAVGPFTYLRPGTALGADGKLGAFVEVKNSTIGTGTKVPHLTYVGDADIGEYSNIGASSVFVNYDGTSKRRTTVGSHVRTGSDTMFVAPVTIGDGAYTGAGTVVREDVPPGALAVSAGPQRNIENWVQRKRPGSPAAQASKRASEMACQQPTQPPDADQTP
Sequence of Serine/threonine-protein kinase Nek4 (P51957 whole entry): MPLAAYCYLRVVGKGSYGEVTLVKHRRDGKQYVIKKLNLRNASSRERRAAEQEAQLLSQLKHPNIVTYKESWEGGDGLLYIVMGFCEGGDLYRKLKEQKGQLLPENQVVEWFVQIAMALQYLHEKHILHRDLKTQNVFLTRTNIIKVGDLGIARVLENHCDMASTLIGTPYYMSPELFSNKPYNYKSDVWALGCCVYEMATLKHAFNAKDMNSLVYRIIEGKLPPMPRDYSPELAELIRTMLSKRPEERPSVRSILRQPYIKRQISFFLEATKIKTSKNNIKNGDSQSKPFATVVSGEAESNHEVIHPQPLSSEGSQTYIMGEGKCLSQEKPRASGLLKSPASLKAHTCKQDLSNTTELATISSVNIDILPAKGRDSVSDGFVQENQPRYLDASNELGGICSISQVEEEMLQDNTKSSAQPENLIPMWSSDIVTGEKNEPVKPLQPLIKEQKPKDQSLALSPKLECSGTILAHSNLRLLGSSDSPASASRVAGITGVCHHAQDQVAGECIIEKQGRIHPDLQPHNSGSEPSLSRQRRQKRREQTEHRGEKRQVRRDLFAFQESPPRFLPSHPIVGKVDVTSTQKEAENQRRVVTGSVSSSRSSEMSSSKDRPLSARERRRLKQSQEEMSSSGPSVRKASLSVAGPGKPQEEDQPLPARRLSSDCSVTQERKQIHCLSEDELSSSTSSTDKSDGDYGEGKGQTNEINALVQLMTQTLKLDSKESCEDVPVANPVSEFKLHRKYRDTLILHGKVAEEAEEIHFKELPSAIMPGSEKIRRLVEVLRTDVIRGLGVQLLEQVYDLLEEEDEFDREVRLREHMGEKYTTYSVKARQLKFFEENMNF
Sequence of Serine/threonine-protein kinase D3 (O94806 whole entry): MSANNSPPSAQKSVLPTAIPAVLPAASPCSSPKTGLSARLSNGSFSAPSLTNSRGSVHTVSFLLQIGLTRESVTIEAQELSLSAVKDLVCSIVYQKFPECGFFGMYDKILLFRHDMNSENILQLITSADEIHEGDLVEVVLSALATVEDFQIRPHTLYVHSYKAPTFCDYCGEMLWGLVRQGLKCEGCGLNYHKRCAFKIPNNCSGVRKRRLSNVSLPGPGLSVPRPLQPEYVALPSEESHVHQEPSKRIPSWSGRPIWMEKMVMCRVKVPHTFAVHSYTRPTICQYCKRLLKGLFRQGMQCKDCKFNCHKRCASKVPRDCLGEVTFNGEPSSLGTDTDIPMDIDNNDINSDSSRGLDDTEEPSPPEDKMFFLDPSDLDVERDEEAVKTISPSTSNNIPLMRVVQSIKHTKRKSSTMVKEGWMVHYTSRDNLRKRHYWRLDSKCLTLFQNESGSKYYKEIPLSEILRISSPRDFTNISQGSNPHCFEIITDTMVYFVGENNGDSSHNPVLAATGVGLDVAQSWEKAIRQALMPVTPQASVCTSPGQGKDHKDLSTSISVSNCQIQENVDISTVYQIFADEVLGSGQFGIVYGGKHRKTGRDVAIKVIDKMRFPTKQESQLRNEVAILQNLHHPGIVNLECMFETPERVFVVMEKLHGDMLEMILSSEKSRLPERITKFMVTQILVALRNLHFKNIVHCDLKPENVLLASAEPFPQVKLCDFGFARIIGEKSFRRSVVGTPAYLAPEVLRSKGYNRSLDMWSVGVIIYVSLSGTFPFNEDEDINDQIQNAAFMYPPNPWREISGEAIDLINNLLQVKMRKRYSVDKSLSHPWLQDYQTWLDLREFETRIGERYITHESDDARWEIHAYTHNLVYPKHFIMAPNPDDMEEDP
Sequence of Leucine-rich repeat serine/threonine-protein kinase 2 (Q5S007 whole entry): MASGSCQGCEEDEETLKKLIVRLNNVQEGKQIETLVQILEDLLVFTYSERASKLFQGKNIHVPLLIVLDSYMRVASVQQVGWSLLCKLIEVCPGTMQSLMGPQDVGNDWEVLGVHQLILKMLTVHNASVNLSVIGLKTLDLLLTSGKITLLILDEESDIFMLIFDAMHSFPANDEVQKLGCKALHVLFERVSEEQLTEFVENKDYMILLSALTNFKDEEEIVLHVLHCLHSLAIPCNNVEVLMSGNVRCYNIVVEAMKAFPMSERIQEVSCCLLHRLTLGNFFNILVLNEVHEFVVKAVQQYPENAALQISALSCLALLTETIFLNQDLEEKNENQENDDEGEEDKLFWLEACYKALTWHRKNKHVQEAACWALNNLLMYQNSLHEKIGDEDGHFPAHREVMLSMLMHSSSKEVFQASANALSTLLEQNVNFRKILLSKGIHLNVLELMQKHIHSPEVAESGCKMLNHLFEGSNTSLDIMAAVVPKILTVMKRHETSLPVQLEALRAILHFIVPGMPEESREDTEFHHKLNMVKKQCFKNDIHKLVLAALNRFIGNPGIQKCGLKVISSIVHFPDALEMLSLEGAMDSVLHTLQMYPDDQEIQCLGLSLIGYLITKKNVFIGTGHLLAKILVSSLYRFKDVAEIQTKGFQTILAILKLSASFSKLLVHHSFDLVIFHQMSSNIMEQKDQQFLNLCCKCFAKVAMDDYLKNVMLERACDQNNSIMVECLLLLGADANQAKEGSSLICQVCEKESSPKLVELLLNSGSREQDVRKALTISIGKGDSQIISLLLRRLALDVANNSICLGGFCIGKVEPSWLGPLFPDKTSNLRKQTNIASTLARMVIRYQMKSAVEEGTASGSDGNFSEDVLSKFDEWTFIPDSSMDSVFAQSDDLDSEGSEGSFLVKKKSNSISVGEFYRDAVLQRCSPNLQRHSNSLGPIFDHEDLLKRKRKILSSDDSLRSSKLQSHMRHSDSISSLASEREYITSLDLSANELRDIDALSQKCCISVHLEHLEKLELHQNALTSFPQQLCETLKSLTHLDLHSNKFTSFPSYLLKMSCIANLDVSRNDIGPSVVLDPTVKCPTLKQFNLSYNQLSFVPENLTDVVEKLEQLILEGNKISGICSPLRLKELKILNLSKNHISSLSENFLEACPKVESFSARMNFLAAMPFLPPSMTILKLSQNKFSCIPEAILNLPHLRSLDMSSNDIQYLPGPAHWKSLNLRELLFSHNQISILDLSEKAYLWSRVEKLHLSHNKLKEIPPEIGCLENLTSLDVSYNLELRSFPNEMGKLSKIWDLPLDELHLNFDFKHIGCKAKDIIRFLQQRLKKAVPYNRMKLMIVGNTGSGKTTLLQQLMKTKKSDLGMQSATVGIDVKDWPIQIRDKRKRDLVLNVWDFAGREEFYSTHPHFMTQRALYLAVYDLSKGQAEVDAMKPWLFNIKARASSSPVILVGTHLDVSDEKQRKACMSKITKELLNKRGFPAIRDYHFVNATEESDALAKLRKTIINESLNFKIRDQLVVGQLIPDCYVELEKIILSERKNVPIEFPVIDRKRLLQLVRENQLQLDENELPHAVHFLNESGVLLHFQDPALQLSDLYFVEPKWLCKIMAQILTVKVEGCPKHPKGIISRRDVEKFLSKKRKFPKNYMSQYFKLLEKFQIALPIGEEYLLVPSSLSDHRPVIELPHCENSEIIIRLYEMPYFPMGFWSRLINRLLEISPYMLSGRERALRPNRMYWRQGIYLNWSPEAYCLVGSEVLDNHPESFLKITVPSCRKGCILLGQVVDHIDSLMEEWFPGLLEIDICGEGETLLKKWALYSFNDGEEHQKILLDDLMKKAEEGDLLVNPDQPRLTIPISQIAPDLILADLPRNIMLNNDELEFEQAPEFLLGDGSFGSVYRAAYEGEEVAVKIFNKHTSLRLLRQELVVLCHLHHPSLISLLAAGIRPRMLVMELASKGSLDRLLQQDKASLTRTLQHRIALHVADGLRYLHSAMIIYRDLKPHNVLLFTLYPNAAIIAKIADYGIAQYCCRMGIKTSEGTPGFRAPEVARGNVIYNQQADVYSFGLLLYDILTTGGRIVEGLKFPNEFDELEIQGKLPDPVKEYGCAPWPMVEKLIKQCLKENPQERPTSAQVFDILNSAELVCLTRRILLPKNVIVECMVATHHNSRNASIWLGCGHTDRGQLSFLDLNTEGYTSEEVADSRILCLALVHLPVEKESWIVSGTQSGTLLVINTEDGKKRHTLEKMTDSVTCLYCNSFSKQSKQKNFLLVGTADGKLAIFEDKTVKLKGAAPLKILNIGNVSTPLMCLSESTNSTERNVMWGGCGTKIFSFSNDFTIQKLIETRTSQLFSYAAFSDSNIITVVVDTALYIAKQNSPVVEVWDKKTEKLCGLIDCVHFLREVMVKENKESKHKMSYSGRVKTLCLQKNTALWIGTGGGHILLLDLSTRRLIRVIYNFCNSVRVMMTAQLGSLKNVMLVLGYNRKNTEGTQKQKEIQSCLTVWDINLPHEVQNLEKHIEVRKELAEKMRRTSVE
Sequence of Casein kinase I isoform alpha (P48729 whole entry, canonical isoform): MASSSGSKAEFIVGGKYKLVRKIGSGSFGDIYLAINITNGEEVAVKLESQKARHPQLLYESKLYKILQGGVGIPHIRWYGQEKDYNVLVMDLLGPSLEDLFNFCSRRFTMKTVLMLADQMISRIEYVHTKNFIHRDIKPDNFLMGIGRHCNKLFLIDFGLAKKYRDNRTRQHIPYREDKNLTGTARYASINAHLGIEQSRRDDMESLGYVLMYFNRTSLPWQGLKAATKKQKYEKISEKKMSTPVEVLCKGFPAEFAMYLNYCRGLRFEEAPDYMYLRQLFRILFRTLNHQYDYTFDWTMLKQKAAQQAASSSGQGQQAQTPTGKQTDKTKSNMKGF

As for `C=CCNC1=C(Cl)C(=O)c2ccccc2C1=O`, the AC50 (as a rule, the concentration giving half of the maximal activity seen) in test [1] is 4060 nM (active); with INS1, 7640 nM (active); in [2] it was 3820 nM (active); in test [3] it was 1700 nM (active).

Consider `CS(=O)(=O)c1ccc2c(c1)SC1=NC(=O)/C(=C/c3ccc(O)c(O)c3)C(=N)N12`, for which the IC50 (in general, the concentration needed to halve the response being measured) in [4] was 159000 nM (active). The concentration giving a half-maximal response (EC50) – broadly, the concentration at which the effect is half-maximal – in test [5] was 61000 nM (active).

With `CCOC(=O)C(C(=O)OCC)c1cc(Br)c2noc3c2c1C(=O)c1ccccc1-3`, the EC50 in test [6] is 9230 nM (active); in test [7] it was 3030 nM (active); in test [8], 510 nM (active). Further, at Protein Tat, the IC50 was 6440 nM (inconclusive).

With `COc1ccc(C(=O)Nc2n[nH]c3ccc(-c4cn(Cc5ccccc5)nn4)cc23)cc1OC`, the Ki (commonly the dissociation constant of the complex between target and ligand, obtained from inhibition or displacement) in test [9] was 126 nM (active); in [10], 3160 nM (active); in test [11], 20 nM (active); in [12] it was 1580 nM (active); in test [13], 50.1 nM (active); in test [14] it was > 1260 nM (inactive). Besides, the inhibitory constant (Ki) is 398 nM (active) in test [15]; 5010 nM (active) in test [16]; 1260 nM (active) in test [17]; > 631 nM (inactive) in test [18]; 12.6 nM (active) in test [19]; > 3160 nM (inactive) on Ephrin type-A receptor 2. For the same compound, the Ki in test [20] was 1000 nM (active); in test [21] it was 15.8 nM (active); in test [22] it was 50.1 nM (active); in [23], 501 nM (active); in test [24], 1260 nM (active); in test [25] it was > 1580 nM (inactive). Also, the Ki in test [26] was 39.8 nM (active); in test [27], 6310 nM (active); in test [28], > 3980 nM (inactive); in test [29] it was > 7940 nM (inactive); in [30], > 5010 nM (inactive); in test [31], > 3980 nM (inactive).
